From US10138255B2, “Piperazine derivatives as HIV protease inhibitors” (Merck Sharp & Dohme Corp., priority 2014, dated 2018)

System: HIV-1 (H9IIIB strain)
Test: Cell-Based HIV Infection Assay Using a Reporter (MT4-GFP cells)
Details: Human immunodeficiency virus 1, inflection point (IP) of viral growth inhibition; MT4-GFP cells infected with HIV-1 H9IIIB; 50% normal human serum; mean of at least two independent experiments; read-out: Cell Based IP (50% NHS)
Summary of the method: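 Inflection point from a 4-parameter curve of % viral growth inhibition, normalised to DMSO and triple-drug controls, using the 48 h/24 h ratio of GFP-positive cells (R0). MT4-GFP cells pre-infected 24 h with HIV-1 H9IIIB at low MOI; compounds tested in 50% normal human serum, 0.4% DMSO; mean of ≥2 experiments.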

Going from `CO[C@H]1CC[C@H]([C@H](c2ccc(Cl)cc2)[C@H](N)C(=O)Nc2cccc(F)c2CC[C@H]2CN[C@@H]3CCCS(=O)(=O)N2C3)CC1` [Example 7, (βR)-4-Chloro-N-(2-{2-[(6R,9S)-2,2-dioxido-2-thia-1,7-diazabicyclo[4.3.1]dec-9-yl]ethyl}-3-fluorophenyl)-β-[(1r,4R)-4-methoxycyclohexyl]-L-phenylalaninamide] to `CCO[C@H]1CC[C@H]([C@H](c2ccc(F)cc2)[C@H](N)C(=O)Nc2cccc(F)c2CC[C@H]2CN[C@@H]3CCCS(=O)(=O)N2C3)CC1` [Example 212, (βR)-N-(2-{2-[(6R,9S)-2,2-dioxido-2-thia-1,7-diazabicyclo[4.3.1]dec-9-yl]ethyl}-3-fluorophenyl)-β-[(1r,4R)-4-ethoxycyclohexyl]-4-fluoro-L-phenylalaninamide], the EC50 rises from 3.1 nM to 7 nM (2.3-fold).

`CC1(C)C[C@@H]([C@H](c2ccc(Cl)cc2)[C@H](N)C(=O)Nc2cccc(F)c2CC[C@H]2CN[C@@H]3CCCS(=O)(=O)N2C3)CCO1` [Example 10, (2S,3R)-2-amino-3-(4-chlorophenyl)-3-((S)-2,2-dimethyltetrahydro-2H-pyran-4-yl)-N-(2-(2-((6R,9S)-2,2-dioxido-2-thia-1,7-diazabicyclo[4.3.1]decan-9-yl)ethyl)-3-fluorophenyl)propanamide] and `N[C@H](C(=O)Nc1cncc(F)c1CC[C@H]1CN[C@@H]2CCCS(=O)(=O)N1C2)[C@@H](c1ccc(Cl)cc1)C1CCCC(F)(F)C1` (stereo partly drawn) [Example 272, (βR)-4-chloro-β-(3,3-difluorocyclohexyl)-N-(4-{2-[(6R,9S)-2,2-dioxido-2-thia-1,7-diazabicyclo[4.3.1]dec-9-yl]ethyl}-5-fluoropyridin-3-yl)-L-phenylalaninamide] are within 1.5-fold of each other in EC50: 6.7 nM for the first, 5.7 nM for the second.

`C[C@@H]1C[C@H]([C@H](c2ccc(F)cc2)[C@H](N)C(=O)Nc2c(F)ccc(F)c2CC[C@H]2CN[C@@H]3CCCS(=O)(=O)N2C3)C[C@H](C)O1` [Example 146, (βR)-β-[(2R,4r,6S)-2,6-dimethyltetrahydro-2H-pyran-4-yl]-N-(2-{2-[(6R,9S)-2,2-dioxido-2-thia-1,7-diazabicyclo[4.3.1]dec-9-yl]ethyl}-3,6-difluorophenyl)-4-fluoro-L-phenylalaninamide] and `C[C@@H]1CC([C@H](c2ccc(F)cc2)[C@H](N)C(=O)Nc2cc(F)ccc2CC[C@H]2CN[C@@H]3CCCS(=O)(=O)N2C3)C[C@H](C)O1` (stereo partly drawn) [Example 188, (βR)-β-[(2S,2R)-2,6-dimethyltetrahydro-2H-pyran-4-yl]-N-(2-{2-[(6R,9S)-2,2-dioxido-2-thia-1,7-diazabicyclo[4.3.1]dec-9-yl]ethyl}-5-fluorophenyl)-4-fluoro-L-phenylalaninamide] are the same in EC50: 25 nM for the first, 25 nM for the second.

`COC(=O)N[C@H](C(=O)Nc1cccc(F)c1CC[C@H]1CN[C@@H]2CCCS(=O)(=O)N1C2)[C@]1(c2ccc(F)cc2)CC[C@@H](OC)CC1` [Example 210, methyl {(1S)-2-[(2-{2-[(6R,9S)-2,2-dioxido-2-thia-1,7-diazabicyclo[4.3.1]dec-9-yl]ethyl}-3-fluorophenyl)amino]-1-[trans-1-(4-fluorophenyl)-4-methoxycyclohexyl]-2-oxoethyl}carbamate] and `COC(=O)N[C@H](C(=O)Nc1ccc(F)c(F)c1CC[C@H]1CN[C@@H]2CCCS(=O)(=O)N1C2)[C@@H](c1ccc(F)cc1)[C@H]1CC[C@H](OC)CC1` [Example 26, Methyl ((2S,3R)-1-((2-(2-((6R,9S)-2,2-dioxido-2-thia-1,7-diazabicyclo[4.3.1]decan-9-yl)ethyl)-3,4-difluorophenyl)amino)-3-(4-fluorophenyl)-3-((1r,4R)-4-methoxycyclohexyl)-1-oxopropan-2-yl)carbamate] are within 1.5-fold of each other in EC50: 16 nM for the first, 11 nM for the second.

Going from `C[C@@H]1C[C@H]([C@H](c2ccc(Cl)cc2)[C@H](N)C(=O)Nc2cncc(F)c2CC[C@H]2CN[C@@H]3CCCS(=O)(=O)N2C3)C[C@H](C)O1` [Example 31, (2S,3R)-2-Amino-3-(4-chlorophenyl)-3-((2R,4r,6S)-2,6-dimethyltetrahydro-2H-pyran-4-yl)-N-(4-(2-((6R,9S)-2,2-dioxido-2-thia-1,7-diazabicyclo[4.3.1]decan-9-yl)ethyl)-5-fluoropyridin-3-yl)propanamide] to `C[C@@H]1C[C@H]([C@H](c2ccc(F)cc2)[C@H](N)C(=O)N[C@H]2CCCC[C@@H]2CC[C@H]2CN[C@@H]3CCCS(=O)(=O)N2C3)C[C@H](C)O1` [Example 149, (βR)-β-[(2R,4r,6S)-2,6-dimelhyltclrahydro-2H-pyran-4-yl]-N-[(1S,2R)-2-{2-[(6R,9S)-2,2-dioxido-2-thia-1,7-diazabicyclo[4.3.1]dec-9-yl]ethyl}cyclohexyl]-4-fluoro-L-phenylalaninamide], the EC50 rises from 6.3 nM to 97 nM (15-fold).

Compared with `COC(=O)N[C@H](C(=O)N[C@H]1CCC[C@@H]1CC[C@H]1CN[C@@H]2CCCS(=O)(=O)N1C2)[C@@H](c1ccc(F)cc1)C1CCOC(C)(C)C1` (stereo partly drawn) [Example 50, methyl [(1S,2R)-2-(2,2-dimethyltetrahydro-2H-pyran-4-yl)-1-{[(1S,2R)-2-{2-[(6R,9S)-2,2-dioxido-2-thia-1,7-diazabicyclo[4.3.1]dec-9-yl]ethyl}cyclopentyl]carbamoyl}-2-(4-fluorophenyl)ethyl]carbamate], `COC(=O)N[C@H](C(=O)N[C@H]1CCC[C@@H]1CC[C@H]1CN[C@@H]2CCCS(=O)(=O)N1C2)[C@@H](c1ccc(Cl)cc1)C1CCOCC1` [Example 58, methyl [(1S,2R)-2-(4-chlorophenyl)-1-{[(1S,2R)-2-{2-[(6R,9S)-2,2-dioxido-2-thia-1,7-diazabicyclo[4.3.1]dec-9-yl]ethyl}cyclopentyl]carbamoyl}-2-(tetrahydro-2H-pyran-4-yl)ethyl]carbamate] is 2.1-fold higher in EC50: 28 nM for the first, 59 nM for the second. The first is the more potent here.

Going from `COC(=O)N[C@H](C(=O)N[C@H]1CCCC[C@@H]1CC[C@H]1CN[C@@H]2CCCS(=O)(=O)N1C2)[C@@]1(c2ccc(Cl)cc2)C[C@@H](C)O[C@@H](C)C1` [Example 169, methyl [(1S)-1-[(2R,4r,6S)-4-(4-chlorophenyl)-2.6-dimethyltetrahydro-2H-pyran-4-yl]-2-{[(1S,2R)-2-{2-[(6R,9S)-2,2-dioxido-2-thia-1,7-diazabicyclo[4.3.1]dec-9-yl]ethyl}cyclohexyl]amino}-2-oxoethyl]carbamate] to `COC(=O)N[C@H](C(=O)N[C@H]1CCCC[C@@H]1CC[C@H]1CN[C@@H]2CCCS(=O)(=O)N1C2)[C@@H](c1ccc(Cl)cc1)C1CCOCC1` [Example 25, Methyl [(1S,2R)-2-(4-chlorophenyl)-1-{[(1S,2R)-2-{2-[(6R,9S)-2,2-dioxido-2-thia-1,7-diazabicyclo[4.3.1]dec-9-yl]ethyl}cyclohexyl]carbamoyl}-2-(tetrahydro-2H-pyran-4-yl)ethyl]carbamate], the EC50 falls from 89 nM to 41 nM (2.2-fold).

Going from `COC(=O)N[C@H](C(=O)N[C@H]1CCCC[C@@H]1CC[C@H]1CN[C@@H]2CCCS(=O)(=O)N1C2)C(c1ccc(F)cc1)c1ccc(F)cc1` [Example 92, methyl [(1S)-1-[bis(4-fluorophenyl)methyl]-2-{[(1S,2R)-2-{2-[(6R,9S)-2,2-dioxido-2-thia-1,7-diazabicyclo[4.3.1]dec-9-yl]ethyl}cyclohexyl]amino}-2-oxoethyl]carbamate] to `N[C@H](C(=O)N[C@H]1CCC[C@@H]1CC[C@H]1CN[C@@H]2CCCS(=O)(=O)N1C2)[C@@H](c1ccc(F)cc1)c1cc(F)cc(F)c1` [Example 57, (βS)-β-(3,5-difluorophenyl)-N-[(1S,2R)-2-{2-[(6R,9S)-2,2-dioxido-2-thia-1,7-diazabicyclo[4.3.1]dec-9-yl]ethyl}cyclopentyl]-4-fluoro-L-phenylalaninamide], the EC50 falls from 56 nM to 27 nM (2.1-fold).

Going from `COC(=O)N[C@H](C(=O)Nc1cccc(F)c1CC[C@H]1CNC2CCCS(=O)(=O)N1C2)[C@@H](c1ccc(Cl)cc1)C1CCS(=O)(=O)CC1` (stereo partly drawn) [Example 159, methyl {(1S,2R)-2-(4-chlorophenyl)-2-(1,1-dioxidotetrahydro-2H-thiopyran-4-yl)-1-[(2-{2-[(9S)-2,2-dioxido-2-thia-1,7-diazabicyclo[4.3.1]dec-9-yl]ethyl}-3-fluorophenyl)carbamoyl]ethyl}carbamate] to `COC(=O)N[C@H](C(=O)Nc1cccc(F)c1CCC1CNC2CCCS(=O)(=O)N1C2)[C@@H](c1ccc(Cl)cc1)c1ccc(OC)nc1` (stereo partly drawn) [Example 47, methyl [(1S,2S)-2-(4-chlorophenyl)-1-({2-[2-(2,2-dioxido-2-thia-1,7-diazabicyclo[4.3.1]dec-9-yl)ethyl]-3-fluorophenyl}carbamoyl)-2-(6-methoxypyridin-3-yl)ethyl]carbamate], the EC50 falls from 720 nM to 18 nM (40-fold).

Compared with `N[C@H](C(=O)N[C@H]1CCC[C@@H]1CC[C@H]1CN[C@@H]2CCCS(=O)(=O)N1C2)[C@H](c1cncc(F)c1)c1ccc(Cl)c(F)c1` [Example 81, (βS)-4-chloro-N-[(1S,2R)-2-{2-[(6R,9S)-2,2-dioxido-2-thia-1,7-diazabicyclo[4.3.1]dec-9-yl]ethyl}cyclopentyl]-3-fluoro-β-(5-fluoropyridin-3-yl)-L-phenylalaninamide], `N[C@H](C(=O)Nc1cccc(F)c1CC[C@H]1CN[C@@H]2CCCS(=O)(=O)N1C2)[C@H](c1cnc(C(F)(F)F)nc1)c1ccc(Cl)c(F)c1` [Example 249, (βS)-4-chloro-N-(2-{2-[(6R,9S)-2,2-dioxido-2-thia-1,7-diazabicyclo[4.3.1]dec-9-yl]ethyl}-3-fluorophenyl)-3-fluoro-β-[2-(trifluoromethyl)pyrimidin-5-yl]-L-phenylalaninamide] is 13-fold lower in EC50: 68 nM for the first, 5.1 nM for the second.

Molecule `CC1(C)CC([C@H](c2ccc(Cl)cc2)[C@H](NCCOCc2ccccc2)C(=O)N[C@H]2CCC[C@@H]2CC[C@H]2CN[C@@H]3CCCS(=O)(=O)N2C3)CCO1` (stereo partly drawn) [Example 230, (βR)-Nα-[2-(benzyloxy)ethyl]-4-chloro-β-(2,2-dimethyltetrahydro-2H-pyran-4-yl)-N-[(1S,2R)-2-{2-[(6R,9S)-2,2-dioxido-2-thia-1,7-diazabicyclo[4.3.1]dec-9-yl]ethyl}cyclopentyl]-L-phenylalaninamide] has an EC50 of 310 nM.
